The assay has as its target T1, VEGFR2 intracellular domain protein (Homo sapiens, UniProt P35968).
T1 construct: made in house; host or cells: SF-21 insect cells infected with recombinant baculovirus BAC-VEGFR2
Description: Determination of VEGF Receptor 2 Kinase (VEGFR2) inhibitory activity (AlphaScreen). It is filed as biochemical. Conditions: test compound at 1 μM; ATP 25 μM buffer, 25° C., 5 min; read-out: kinase inhibitory rate (%). The method, then:
Human VEGF receptor 2 (hereinafter to be abbreviated as VEGFR2) gene was cloned by PCR using cDNA Libraries Human Placenta (Clontech) as a template. The primer used for PCR was prepared from nucleotide sequence (Genbank Accession AF035121) information of VEGFR2 gene by adding a nucleotide sequence encoding flag peptide and a restriction enzyme recognition sequence to a nucleotide sequence (2671-4374 of Genbank Accession AF035121) encoding the VEGFR2 intracellular domain region, so that the protein contains an N-terminal flag tag. The primer nucleotide sequence is shown below.
SF-21 cells were sown at 1×10^6 cells/ml to Sf-900II SFM medium (1 L, Invitrogen) containing 10% fetal bovine serum (trace), 50 mg/L gentamicin (Invitrogen) and 0.1% Pluronic F-68 (Invitrogen), and shaking culture was performed using a 2 L volume Erlenmeyer flask at 27° C., 100 rpm. After culturing for 24 hrs, recombinant baculovirus BAC-VEGFR2 (13.4 mL) was added, and the mixture was further cultured for 3 days. The culture medium was centrifuged at 2,000 rpm for 5 min to give virus-infected cells. The infected cells were washed with a phosphate buffered saline (Invitrogen), centrifuged under the same conditions, and the cells were preserved at −80° C. The cryopreserved cells were thawed in ice, suspended in buffer A (50 mM Tris buffer (30 mL, pH 7.4) containing 20% glycerol, 0.15 M NaCl) supplemented with Complete Protease Inhibitor (Boehringer), and ruptured 3 times with a Polytron homogenizer (Kinematica) at 20,000 rpm for 30 sec. The rupture medium was clarified by centrifugation at 40,000 rpm for 30 min and filtered with a 0.45 μm filter. The filtrate was passed through a column packed with Anti-FLAG M2 Affinity Gel (4 mL, Sigma) at a flow rate of about 0.5 mL/min. The column was washed with buffer A, and eluted with buffer A containing 100 μg/mL of FLAG peptide. The eluate was concentrated with Vivaspin 20 (Vivascience) having a molecular weight cut off of 30K. The buffer of this concentrate was exchanged using NAP™ 25 column (Amersham Bioscience) equilibrated with buffer A. The fractions containing VEGFR2 intracellular domain protein were collected, glycerol was added to the final concentration of 50% and cryopreserved at −80° C.
A test compound dissolved in dimethyl sulfoxide (DMSO) was diluted with a buffer (50 mM Tris-HCl (pH 7.5), 5 mM MgCl2, 5 mM MnCl2, 2 mM dithiothreitol, 0.01% Tween-20). To this compound solution (5 μl) was added a buffer […] containing 50 ng/ml of VEGFR2 intracellular domain protein and 250 ng/ml of biotin labeled polypeptide biotinyl-poly-Glu:Tyr (4:1) (CIS bio International). To the obtained mixture was added a buffer (10 μl) containing ATP (25 μM), the mixture was allowed to react at 25° C. for 5 min and the reaction was quenched with 25 μl of a stop solution (100 mM EDTA disodium salt, 62.5 mM HEPES buffer (pH 7.4), 250 mM NaCl, 0.1% bovine serum albumin, 10 μg/ml AlphaScreen assay streptavidin donor beads (Streptavidin Donor beads: PerkinElmer), 10 μg/ml AlphaScreen assay anti-phosphotyrosine recognition antibody PY-100 binding acceptor beads (Anti-phosphotyrosine (P-Tyr-100) Acceptor beads: PerkinElmer)). The reaction solution was allowed to stand at 25° C. for 16 hrs, and the […] using a plate reader Fusion™ (manufactured by PerkinElmer). The kinase inhibitory rate (%) of the test compound was calculated by the following formula: Inhibitory rate (%)=(1−(count of test compound−blank)÷(control−blank))×100
The count of the solution reacted without addition of the compound was used as a “control”, and the count of the solution without the compound and ATP was used as a “blank”.
(In Alpha technology, singlet oxygen from a donor bead excites a nearby acceptor bead.)

The structures appear in SMILES notation. Structures can show the parent of a compound that is named as a salt.

T1 sequence (P35968 786-1356 limits assumed): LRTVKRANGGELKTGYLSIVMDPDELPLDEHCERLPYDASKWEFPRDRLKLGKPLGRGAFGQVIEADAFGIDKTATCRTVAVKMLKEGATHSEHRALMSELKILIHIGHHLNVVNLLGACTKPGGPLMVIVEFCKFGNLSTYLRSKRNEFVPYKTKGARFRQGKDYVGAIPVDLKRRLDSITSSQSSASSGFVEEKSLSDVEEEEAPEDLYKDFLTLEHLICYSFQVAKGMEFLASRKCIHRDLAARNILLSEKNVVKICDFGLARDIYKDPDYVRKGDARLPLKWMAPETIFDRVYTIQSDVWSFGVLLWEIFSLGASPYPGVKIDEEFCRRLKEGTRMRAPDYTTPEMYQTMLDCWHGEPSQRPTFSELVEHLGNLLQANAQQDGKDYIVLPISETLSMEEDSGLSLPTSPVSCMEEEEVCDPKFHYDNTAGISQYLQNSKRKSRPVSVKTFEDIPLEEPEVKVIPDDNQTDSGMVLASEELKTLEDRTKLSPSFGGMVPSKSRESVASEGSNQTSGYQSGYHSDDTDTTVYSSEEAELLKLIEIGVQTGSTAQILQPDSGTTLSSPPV

For the compound `O=C(c1ccc2[nH]c3c(c2c1)CCCc1cn[nH]c1-3)N1CCC(N2CCCCCC2)CC1` [Example 11, 8-[(4-azepan-1-ylpiperidin-1-yl)carbonyl]-4,5,6,11-tetrahydro-1H-pyrazolo[4′,3′:6,7]cyclohepta[1,2-b]indole hydrochloride], the inhibition at 1 µM was ≥ 90%.
For `O=C(c1ccc2[nH]c3c(c2c1)CCCc1cn[nH]c1-3)N1CCC(N2CCSCC2)CC1` [Example 15, 8-[(4-thiomorpholin-4-ylpiperidin-1-yl)carbonyl]-4,5,6,11-tetrahydro-1H-pyrazolo[4′,3′:6,7]cyclohepta[1,2-b]indole hydrochloride] the value was ≥ 90%.
`O=C(c1ccc2[nH]c3c(c2c1)CCCc1cn[nH]c1-3)N1CCC(NCc2ccccc2)CC1` [Example 17, N-benzyl-1-(4,5,6,11-tetrahydro-1H-pyrazolo[4′,3′:6,7]cyclohepta[1,2-b]indol-8-ylcarbonyl)piperidin-4-amine hydrochloride]: the inhibition at 1 µM was ≥ 90%.
For `O=C(c1ccc2[nH]c3c(c2c1)CCCc1cn[nH]c1-3)N1CCC(O)(c2ccc(F)cc2)CC1` [Example 41, 4-(4-fluorophenyl)-1-(4,5,6,11-tetrahydro-1H-pyrazolo[4′,3′:6,7]cyclohepta[1,2-b]indol-8-ylcarbonyl)piperidin-4-ol] the value was ≥ 80%.
For `O=C(c1ccc2[nH]c3c(c2c1)CCCc1cn[nH]c1-3)N1CCC(O)(c2cccc(F)c2)CC1` [Example 42, 4-(3-fluorophenyl)-1-(4,5,6,11-tetrahydro-1H-pyrazolo[4′,3′:6,7]cyclohepta[1,2-b]indol-8-ylcarbonyl)piperidin-4-ol] the value was ≥ 80%; for `O=C(c1ccc2[nH]c3c(c2c1)CCCc1cn[nH]c1-3)N1CCC(O)(c2ccccc2F)CC1` [Example 43, 4-(2-fluorophenyl)-1-(4,5,6,11-tetrahydro-1H-pyrazolo[4′,3′:6,7]cyclohepta[1,2-b]indol-8-ylcarbonyl)piperidin-4-ol], ≥ 80%; for `O=C(c1ccc2[nH]c3c(c2c1)CCCc1cn[nH]c1-3)N1CCC(O)(c2ccc(Cl)cc2)CC1` [Example 44, 4-(4-chlorophenyl)-1-(4,5,6,11-tetrahydro-1H-pyrazolo[4′,3′:6,7]cyclohepta[1,2-b]indol-8-ylcarbonyl)piperidin-4-ol], ≥ 80%.
Under `O=C(c1ccc2[nH]c3c(c2c1)CCCc1cn[nH]c1-3)N1CCC(O)(c2cccc(Cl)c2)CC1` [Example 45, 4-(3-chlorophenyl)-1-(4,5,6,11-tetrahydro-1H-pyrazolo[4′,3′:6,7]cyclohepta[1,2-b]indol-8-ylcarbonyl)piperidin-4-ol] stands ≥ 80%.
Take `O=C(c1ccc2[nH]c3c(c2c1)CCCc1cn[nH]c1-3)N1CCC(O)(c2ccccc2Cl)CC1` [Example 46, 4-(2-chlorophenyl)-1-(4,5,6,11-tetrahydro-1H-pyrazolo[4′,3′:6,7]cyclohepta[1,2-b]indol-8-ylcarbonyl)piperidin-4-ol]: the inhibition at 1 µM is ≥ 80%.
As for `O=C(c1ccc2[nH]c3c(c2c1)CCCc1cn[nH]c1-3)N1CCC(O)(c2ccc(C(F)(F)F)cc2)CC1` [Example 47, 1-(4,5,6,11-tetrahydro-1H-pyrazolo[4′,3′:6,7]cyclohepta[1,2-b]indol-8-ylcarbonyl)-4-[4-(trifluoromethyl)phenyl]piperidin-4-ol], the inhibition at 1 µM was ≥ 80%.
For `O=C(c1ccc2[nH]c3c(c2c1)CCCc1cn[nH]c1-3)N1CCC(O)(c2cccc(C(F)(F)F)c2)CC1` [Example 48, 1-(4,5,6,11-tetrahydro-1H-pyrazolo[4′,3′:6,7]cyclohepta[1,2-b]indol-8-ylcarbonyl)-4-[3-(trifluoromethyl)phenyl]piperidin-4-ol] the value was ≥ 80%.
Take `O=C(c1ccc2[nH]c3c(c2c1)CCCc1cn[nH]c1-3)N1CCC(O)(c2ccccc2C(F)(F)F)CC1` [Example 49, 1-(4,5,6,11-tetrahydro-1H-pyrazolo[4′,3′:6,7]cyclohepta[1,2-b]indol-8-ylcarbonyl)-4-[2-(trifluoromethyl)phenyl]piperidin-4-ol]: the inhibition at 1 µM is ≥ 80%.
